{"source": "paper PMC12114840", "about": "“Exploring the Anticancer Properties of 1,2,3-Triazole-Substituted Andrographolide Derivatives” (Pharmaceuticals, 2025)", "key": {"A375 cells (melanoma)": {"tested_on": "A375 cells (melanoma)", "experiment": "Sulforhodamine B (SRB) antiproliferative assay, A375", "assay_type": "cell-based", "settings": "Homo sapiens, A-375, A375, 48 h, mean ± SEM of four to six independent experiments", "description": "(§1) The antiproliferative properties of andrographolide and all prepared derivatives (2–26) were evaluated against a panel of different cancer cell lines, including human pancreatic ductal adenocarcinoma (PANC-1), colorectal adenocarcinoma (HCT116), melanoma (A375), breast adenocarcinoma (MCF-7) and a non-tumorigenic colon (CCD-18Co) cell line using the sulforhodamine B assay.\n(§2) Human breast adenocarcinoma MCF-7, pancreatic ductal adenocarcinoma PANC-1, melanoma A375, and non-tumorigenic colon CCD-18Co cell lines were purchased from ATCC (Rockville, MD, USA). Human colorectal adenocarcinoma HCT116 cells were kindly provided by B. Vogelstein (The Johns Hopkins Kimmel Cancer Center, Baltimore, MD, USA). Tumor cells were routinely cultured in RPMI-1640 medium with UltraGlutamine from Biowest (VWR, Carnaxide, Portugal) supplemented with 10% fetal bovine serum (FBS) from Biowest (VWR, Carnaxide, Portugal), except for the PANC-1 cells, which were grown in DMEM (4.5 g/L glucose) with stable L-glutamine and sodium pyruvate and supplemented with 10% FBS. The non-tumorigenic CCD-18Co cells were cultured in EMEM (Lonza, VWR, Carnaxide, Portugal), supplemented with 10% FBS. All cells were incubated at 37 °C in a humidified atmosphere of 5% CO2. Routine mycoplasma testing was performed using the MycoAlert™ PLUS mycoplasma detection kit (Lonza).\n(§3) For the evaluation of the compound effect on cell proliferation, human cell lines were seeded in 96-well plates at a density of 5.0 × 10^3 (HCT116, MCF-7, PANC-1, A375, and CCD-18Co) cells per well, for 24 h. Cells were then treated with serial dilutions of the compound (ranging from 0.63 to 30 µM), for an additional 48 h incubation period. The growth inhibitory effects were assessed by SRB assay, as described in [58], and the half-maximal inhibitory concentration (IC50 values) were determined for each cell line using the GraphPad Prism software version 7.0 (La Jolla, CA, USA). Culture medium containing a maximum of 0.05% dimethyl sulfoxide (DMSO) was used as negative control."}, "[1]": {"tested_on": "PANC-1 cells (pancreatic ductal adenocarcinoma)", "experiment": "Sulforhodamine B (SRB) antiproliferative assay, PANC-1", "assay_type": "cell-based, human", "settings": "Homo sapiens; PANC-1, 48 h, SRB; mean ± SEM of four to six independent experiments", "description": "as §1, §2, §3"}, "[2]": {"tested_on": "HCT116 cells (colorectal adenocarcinoma)", "experiment": "Sulforhodamine B (SRB) antiproliferative assay, HCT116", "assay_type": "cell-based", "settings": "Homo sapiens, HCT-116, HCT116, 48 h, mean ± SEM of four to six independent experiments", "description": "as §1, §2, §3"}, "[3]": {"tested_on": "CCD-18Co cells (non-tumorigenic colon)", "experiment": "Sulforhodamine B (SRB) antiproliferative assay, CCD-18Co", "assay_type": "cell-based", "settings": "Homo sapiens, CCD-18Co non-tumorigenic, 48 h, mean ± SEM of four to six independent experiments", "description": "as §1, §2, §3"}, "[4]": {"tested_on": "MCF-7 cells (breast adenocarcinoma)", "experiment": "Sulforhodamine B (SRB) antiproliferative assay, MCF-7", "assay_type": "cell-based", "settings": "Homo sapiens, MCF7, MCF-7, 48 h, mean ± SEM of four to six independent experiments", "description": "as §1, §2, §3"}}, "data": [{"smiles": "C=C1CC[C@@H]2[C@](C)(CO)[C@H](O)CC[C@@]2(C)[C@@H]1C/C=C1/C(=O)OC[C@H]1O", "note": "[Compound 1, andrographolide]", "values": [{"measurement": "IC50", "setting": "A375 cells (melanoma)", "result": "4 ± 0.1", "unit": "µM"}, {"measurement": "IC50", "setting": "[1]", "result": "3.1 ± 0.1", "unit": "µM"}, {"measurement": "IC50", "setting": "[2]", "result": "5.1 ± 1.5", "unit": "µM"}, {"measurement": "IC50", "setting": "[3]", "result": "6.2 ± 1.1", "unit": "µM"}, {"measurement": "IC50", "setting": "[4]", "result": "13.5 ± 0.5", "unit": "µM"}]}, {"smiles": "C=C1CC[C@@H]2[C@](C)(COC(C)=O)[C@H](OC(C)=O)CC[C@@]2(C)[C@@H]1C/C=C1/C(=O)OC[C@H]1OC(C)=O", "note": "[Compound 2, 3,14,19-Triacetyl Andrographolide]", "values": [{"measurement": "IC50", "setting": "A375 cells (melanoma)", "result": "1.2 ± 0.2", "unit": "µM"}, {"measurement": "IC50", "setting": "[1]", "result": "1.9 ± 0.2", "unit": "µM"}, {"measurement": "IC50", "setting": "[2]", "result": "1.4 ± 0.1", "unit": "µM"}, {"measurement": "IC50", "setting": "[3]", "result": "5.6 ± 1.3", "unit": "µM"}, {"measurement": "IC50", "setting": "[4]", "result": "4.9 ± 0.1", "unit": "µM"}]}, {"smiles": "C=C1CC[C@@H]2[C@](C)(COC(C)=O)[C@H](OC(C)=O)CC[C@@]2(C)[C@@H]1C[C@@H](N=[N+]=[N-])C1=CCOC1=O", "note": "[Compound 3, (12R)-azido-3,19-diacetoxy-14-deoxy-andrographolide]", "values": [{"measurement": "IC50", "setting": "A375 cells (melanoma)", "result": "1.3 ± 0.1", "unit": "µM"}, {"measurement": "IC50", "setting": "[1]", "result": "1.9 ± 0.1", "unit": "µM"}, {"measurement": "IC50", "setting": "[2]", "result": "7.9 ± 2.1", "unit": "µM"}, {"measurement": "IC50", "setting": "[3]", "result": "3.8 ± 0.7", "unit": "µM"}, {"measurement": "IC50", "setting": "[4]", "result": "6.6 ± 0.1", "unit": "µM"}]}, {"smiles": "C=C1CC[C@@H]2[C@](C)(COC(C)=O)[C@H](OC(C)=O)CC[C@@]2(C)[C@@H]1C[C@H](N=[N+]=[N-])C1=CCOC1=O", "note": "[Compound 4, (12S)-azido-3,19-diacetoxy-14-deoxy-andrographolide]", "values": [{"measurement": "IC50", "setting": "A375 cells (melanoma)", "result": "1.2 ± 0.2", "unit": "µM"}, {"measurement": "IC50", "setting": "[1]", "result": "3 ± 0.2", "unit": "µM"}, {"measurement": "IC50", "setting": "[2]", "result": "1.5 ± 0.2", "unit": "µM"}, {"measurement": "IC50", "setting": "[3]", "result": "2.2 ± 0.8", "unit": "µM"}, {"measurement": "IC50", "setting": "[4]", "result": "6.9 ± 0.8", "unit": "µM"}]}, {"smiles": "C=C1CC[C@@H]2[C@](C)(COC(C)=O)[C@H](OC(C)=O)CC[C@@]2(C)[C@@H]1C[C@H](C1=CCOC1=O)n1cc(C(C)(C)O)nn1", "note": "[Compound 5, (12R)-4-(2-methyl-2-ol)-1,2,3-triazole-3,19-diacetoxy-14-deoxy-andrographolide]", "values": [{"measurement": "IC50", "setting": "A375 cells (melanoma)", "result": "7.7 ± 1.3", "unit": "µM"}, {"measurement": "IC50", "setting": "[1]", "result": "8.5 ± 1", "unit": "µM"}, {"measurement": "IC50", "setting": "[2]", "result": "8.4 ± 1.1", "unit": "µM"}, {"measurement": "IC50", "setting": "[3]", "result": "7.1 ± 2.6", "unit": "µM"}, {"measurement": "IC50", "setting": "[4]", "result": "25 ± 3", "unit": "µM"}]}, {"smiles": "C=C1CC[C@@H]2[C@](C)(COC(C)=O)[C@H](OC(C)=O)CC[C@@]2(C)[C@@H]1C[C@H](C1=CCOC1=O)n1cc(C(=O)OCC)nn1", "note": "[Compound 6, (12R)-4-propriolate-1,2,3-triazole-3,19-diacetoxy-14-deoxy-andrographolide]", "values": [{"measurement": "IC50", "setting": "A375 cells (melanoma)", "result": "1.3 ± 0.3", "unit": "µM"}, {"measurement": "IC50", "setting": "[1]", "result": "3.4 ± 0.9", "unit": "µM"}, {"measurement": "IC50", "setting": "[2]", "result": "1.2 ± 0.1", "unit": "µM"}, {"measurement": "IC50", "setting": "[3]", "result": "4.4 ± 0.2", "unit": "µM"}, {"measurement": "IC50", "setting": "[4]", "result": "3.8 ± 0.2", "unit": "µM"}]}, {"smiles": "C=C1CC[C@@H]2[C@](C)(COC(C)=O)[C@H](OC(C)=O)CC[C@@]2(C)[C@@H]1C[C@H](C1=CCOC1=O)n1cc(CNC(=O)OC(C)(C)C)nn1", "note": "[Compound 7, (12R)-4-(tert-butylmethyl carbamate)-1,2,3-triazole-3,19-diacetoxy-14-deoxy-andrographolide]", "values": [{"measurement": "IC50", "setting": "A375 cells (melanoma)", "result": "3.6 ± 0.9", "unit": "µM"}, {"measurement": "IC50", "setting": "[1]", "result": "4.1 ± 0.3", "unit": "µM"}, {"measurement": "IC50", "setting": "[2]", "result": "1.6 ± 0.4", "unit": "µM"}, {"measurement": "IC50", "setting": "[3]", "result": "12.9 ± 2.2", "unit": "µM"}, {"measurement": "IC50", "setting": "[4]", "result": "18 ± 0.1", "unit": "µM"}]}, {"smiles": "C=C1CC[C@@H]2[C@](C)(COC(C)=O)[C@H](OC(C)=O)CC[C@@]2(C)[C@@H]1C[C@H](C1=CCOC1=O)n1cc(Cc2ccccc2)nn1", "note": "[Compound 8, (12R)-4-benzyl-1,2,3-triazole-3,19-diacetoxy-14-deoxy-andrographolide]", "values": [{"measurement": "IC50", "setting": "A375 cells (melanoma)", "result": "23 ± 2", "unit": "µM"}, {"measurement": "IC50", "setting": "[1]", "result": "3.1 ± 0.4", "unit": "µM"}, {"measurement": "IC50", "setting": "[2]", "result": "2.1 ± 0.6", "unit": "µM"}, {"measurement": "IC50", "setting": "[3]", "result": "8.7 ± 1.9", "unit": "µM"}, {"measurement": "IC50", "setting": "[4]", "result": "15.5 ± 0.5", "unit": "µM"}]}, {"smiles": "C=C1CC[C@@H]2[C@](C)(COC(C)=O)[C@H](OC(C)=O)CC[C@@]2(C)[C@@H]1C[C@@H](C1=CCOC1=O)n1cc(Cc2ccccc2)nn1", "note": "[Compound 9, (12S)-4-benzyl-1,2,3-triazole-3,19-diacetoxy-14-deoxy andrographolide]", "values": [{"measurement": "IC50", "setting": "A375 cells (melanoma)", "result": "2.1 ± 0.3", "unit": "µM"}, {"measurement": "IC50", "setting": "[1]", "result": "2 ± 0.1", "unit": "µM"}, {"measurement": "IC50", "setting": "[2]", "result": "1.9 ± 0.6", "unit": "µM"}, {"measurement": "IC50", "setting": "[3]", "result": "3.8 ± 0.9", "unit": "µM"}, {"measurement": "IC50", "setting": "[4]", "result": "8.1 ± 0.1", "unit": "µM"}]}, {"smiles": "C=C1CC[C@@H]2[C@](C)(COC(C)=O)[C@H](OC(C)=O)CC[C@@]2(C)[C@@H]1C[C@H](C1=CCOC1=O)n1cc(-c2ccccc2)nn1", "note": "[Compound 10, (12R)-4-phenyl-1,2,3-triazole-3,19-diacetoxy-14-deoxy-andrographolide]", "values": [{"measurement": "IC50", "setting": "A375 cells (melanoma)", "result": "7.7 ± 1", "unit": "µM"}, {"measurement": "IC50", "setting": "[1]", "result": "3.8 ± 0.7", "unit": "µM"}, {"measurement": "IC50", "setting": "[2]", "result": "2.2 ± 0.1", "unit": "µM"}, {"measurement": "IC50", "setting": "[3]", "result": "7.2 ± 0.6", "unit": "µM"}, {"measurement": "IC50", "setting": "[4]", "result": "7.8 ± 0.8", "unit": "µM"}]}]}
